Experimental data published in paper PMC6566410, “Novel Diamide-Based Benzenesulfonamides as Selective Carbonic Anhydrase IX Inhibitors Endowed with Antitumor Activity: Synthesis, Biological Evaluation and In Silico Insights” (International Journal of Molecular Sciences, 2019).

Key:
[1] = test system: renal cancer UO-31 cell line; assay: MTT anti-proliferative assay; assay type: cell-based; settings: Homo sapiens, mean ± S.D. of three separate experiments
Description: Staurosporine was adopted in the experiment as a reference anticancer drug.
Renal cancer UO-31 cell line was obtained from American Type Culture Collection (ATCC). UO-31 cells were seeded into 96-well plates at 1.8 x 10^4/well. Cells were grown in DMEM, and supplemented with 10% heat-inactivated fetal bovine serum, 1% L-glutamine (2.5 mM), HEPES buffer (10 mM), 50 μg/mL gentamycin.

UO-31 cells [2] = assay: cell cycle analysis, DNA flow cytometry; assay type: cell-based, human; settings: UO-31, at IC50 concentration, 24 h
Description: The effect of diamide-based benzenesulfonamides 5a and 5h on cell cycle progression was examined in renal UO-31 cancer cells, through a DNA flow cytometric assay (Figure 3).
Then, the treated cells were collected by centrifugation, fixed in ice-cold 70% (v/v) ethanol, washed with PBS, re-suspended with RNase (100 μg/mL), stained with PI (40 μg/mL), and analyzed by flow cytometry using FACS Calibur (Becton Dickinson, BD, USA). The cell cycle distributions were calculated utilizing CellQuest software 5.1 (Becton Dickinson).

UO-31 cells [3] = assay: Annexin V-FITC/PI apoptosis assay; assay type: cell-based, human; settings: for late apoptotic cells (UR) / early apoptotic cells (LR): UO-31, annexin V-FITC/PI; for late apoptotic cells (UR): control 0.29%; for early apoptotic cells (LR): control 0.85%
Description: To explore whether the anti-proliferative activity of diamide-based sulfonamides 5a and 5h is consistent with the induction of apoptosis within the UO-31 cancer cells, Annexin V-FITC/propidium iodide (AV/PI) dual staining assay was performed by flow cytometry (Figure 4).
Assay of the phosphatidylserine externalization was carried out using Annexin V-FITC/PI apoptosis detection kit (BD Biosciences, San Jose, CA, USA) following the manufacturer’s instructions, as reported previously.

[4] = test system: panel of sixty cancer cell lines; assay: NCI one-dose SRB assay, whole panel; assay type: cell-based; settings: Homo sapiens, mean over the panel, 1.00E-5 Molar, read-out: Mean Growth Percent
Description: First, all diamide-based benzenesulfonamides herein reported 5a–h were screened for their antitumor activity at one dose (10^−5 M) assay against a panel of sixty cancer cell lines through the National Cancer Institute (NCI) Developmental Therapeutic Program (www.dtp.nci.nih.gov), according to US-NCI protocol. The cell growth and cell viability were evaluated using the sulforhodamine B (SRB) colorimetric assay.
This assay was carried out according to the protocol of the Drug Evaluation Branch, NCI, Bethesda. The cell growth and cell viability were evaluated using the sulforhodamine B (SRB) colorimetric assay, as reported earlier.

hCA IX = hCA IX (Homo sapiens, UniProt Q16790); assay: stopped-flow CO2 hydrase assay; settings: for Selectivity ratio I/IX: KI hCA I / KI hCA IX; for Selectivity ratio II/IX: KI hCA II / KI hCA IX
Description: (§1) An Applied Photophysics stopped-flow instrument was used for assaying the CA catalysed CO2 hydration activity, as reported earlier [17]. The inhibition constants were obtained by non-linear least-squares methods using PRISM 3 and the Cheng-Prusoff equation as reported earlier, and represent the mean from at least three different determinations. The four tested CA isofoms were recombinant ones obtained in-house as reported earlier [26, 27, 28, 29].

hCA XII = hCA XII (Homo sapiens, UniProt O43570); assay: stopped-flow CO2 hydrase assay; settings: for Selectivity ratio I/XII: KI hCA I / KI hCA XII; for Selectivity ratio II/XII: KI hCA II / KI hCA XII
Description: as §1

BT-549 = assay: NCI one-dose SRB assay; assay type: cell-based, human; settings: BT-549 (Breast Cancer), 1.00E-5 Molar
Method in brief: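 Read-out: sulforhodamine B colorimetric measurement of cell growth and viability. Each compound was applied once at 10^−5 M across sixty cancer cell lines under the NCI Drug Evaluation Branch protocol.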

Chain of hCA XII (O43570 25-354): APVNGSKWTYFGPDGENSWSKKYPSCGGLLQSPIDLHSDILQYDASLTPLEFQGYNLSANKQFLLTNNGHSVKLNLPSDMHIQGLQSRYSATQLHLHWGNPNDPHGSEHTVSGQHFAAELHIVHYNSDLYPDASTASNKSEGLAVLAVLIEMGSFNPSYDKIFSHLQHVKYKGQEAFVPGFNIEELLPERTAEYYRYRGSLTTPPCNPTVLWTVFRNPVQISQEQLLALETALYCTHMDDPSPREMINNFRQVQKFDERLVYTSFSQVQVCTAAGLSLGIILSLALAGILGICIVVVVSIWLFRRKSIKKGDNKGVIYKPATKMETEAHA

Structure (SMILES) | IC50 [1] [nM] | arrest in G2-M phase compared to control (UO-31 cells [2]) [fold] | increase in percentage of cells at Sub-G1 compared to control (UO-31 cells [2]) [fold] | late apoptotic cells (UR) (UO-31 cells [3]) [%] | early apoptotic cells (LR) (UO-31 cells [3]) [%] | activity at 10 µM [4] [%] | Ki (hCA IX) [nM] | Selectivity ratio I/IX (hCA IX) | Selectivity ratio II/IX (hCA IX) | Ki (hCA XII) [nM] | Selectivity ratio I/XII (hCA XII) | Selectivity ratio II/XII (hCA XII) | Growth Percent (BT-549) [%] | total increase in annexin V-FITC positive apoptotic cells (UR + LR) compared with control (UO-31 cells [3]; UO-31) [fold]
NS(=O)(=O)c1ccc(NC(=O)C(=Cc2ccc(Cl)cc2)NC(=O)c2ccccc2)cc1 [Compound 5a, N-(1-(4-Chlorophenyl)-3-oxo-3-((4-sulfamoylphenyl)amino)prop-1-en-2-yl)benzamide] | 6530 ± 380 | 2.2 | 14 | 22.96 | 2.64 | 100 | 8.8 | 449.5 | 7.8 | 16.1 | 245.7 | 4.2 |  | 
NS(=O)(=O)c1ccc(NC(=O)C(=Cc2ccc(Cl)cc2Cl)NC(=O)c2ccccc2)cc1 [Compound 5b, N-(1-(2,4-Dichlorophenyl)-3-oxo-3-((4-sulfamoylphenyl)amino)prop-1-en-2-yl)benzamide] | 16700 ± 920 |  |  |  |  | 97 | 18.3 | 326.6 | 12.2 | 10.5 | 569.2 | 21.3 | 89.13 | 
NS(=O)(=O)c1ccc(NC(=O)C(=Cc2ccc(Br)cc2)NC(=O)c2ccccc2)cc1 [Compound 5c, N-(1-(4-Bromophenyl)-3-oxo-3-((4-sulfamoylphenyl)amino)prop-1-en-2-yl)benzamide] |  |  |  |  |  | 97.3 | 33.5 | 71.6 | 7.5 | 55.4 | 43.3 | 4.5 |  | 
Cc1ccc(C=C(NC(=O)c2ccccc2)C(=O)Nc2ccc(S(N)(=O)=O)cc2)cc1 [Compound 5d, N-(3-Oxo-3-((4-sulfamoylphenyl)amino)-1-(p-tolyl)prop-1-en-2-yl)benzamide] |  |  |  |  |  | 102 | 62.1 | 12.8 | 1.5 | 60.2 | 13.2 |  | 105.04 | 
COc1ccc(C=C(NC(=O)c2ccccc2)C(=O)Nc2ccc(S(N)(=O)=O)cc2)cc1 [Compound 5e, N-(1-(4-Methoxyphenyl)-3-oxo-3-((4-sulfamoylphenyl)amino)prop-1-en-2-yl)benzamide] |  |  |  |  |  | 103 | 78 | 12.9 | 1.5 | 42.8 | 23.5 | 3 |  | 
COc1ccc(C=C(NC(=O)c2ccccc2)C(=O)Nc2ccc(S(N)(=O)=O)cc2)c(OC)c1 [Compound 5f, N-(1-(2,4-Dimethoxyphenyl)-3-oxo-3-((4-sulfamoylphenyl)amino)prop-1-en-2-yl)benzamide] |  |  |  |  |  | 103 | 73.7 | 69.9 | 4 | 134 | 38.2 | 2.2 |  | 
COc1ccc(C=C(NC(=O)c2ccccc2)C(=O)Nc2ccc(S(N)(=O)=O)cc2)cc1OC [Compound 5g, N-(1-(3,4-Dimethoxyphenyl)-3-oxo-3-((4-sulfamoylphenyl)amino)prop-1-en-2-yl)benzamide] |  |  |  |  |  | 103 | 123 | 17.9 | 3.6 | 9.8 | 225.3 | 45.7 |  | 
Cc1ccc(C=C(NC(=O)c2ccccc2)C(=O)Nc2ccc(S(N)(=O)=O)cc2)o1 [Compound 5h, N-(1-(5-Methylfuran-2-yl)-3-oxo-3-((4-sulfamoylphenyl)amino)prop-1-en-2-yl)benzamide] | 4890 ± 220 | 2.5 | 15.5 | 21.85 | 8.41 | 94.6 | 8.3 | 985 | 13.8 | 57.9 | 141.2 | 2 |  | 26.5
